# Article PMC11314410, “Synthesis and Anti-Trypanosoma cruzi Activity of New Pyrazole-Thiadiazole Scaffolds” (Molecules, 2024)
# Like-named read-outs stand apart in the source and are kept apart here.
# What was measured:
# [1] = system: T. cruzi (Dm28c-Luc) intracellular parasites in 3D cardiac spheroids; test: Antiparasitic activity in T. cruzi-infected 3D cardiac microtissues; type: cell-based, Trypanosoma cruzi; conditions: 100 µM, 72 h
# Experimental: (§1) Three-dimensional (3D) cardiac cells were obtained as previously described. Briefly, isolated cardiac muscle cells (2.5 × 10^4 cells/well) were seeded in 96-well U-bottom plates coated with agarose (1%) to form cell aggregates. Cardiac microtissue (7 days in culture) was employed to determine cardiotoxicity and drug efficacy in more complex systems. All animal-use procedures were approved by the Animal Care and Use Committee of Instituto Oswaldo Cruz (license L017/2022-A2).
# Cardiac spheroids (2.5 × 10^4 cells/well), formed after 7 days of cultivation in a U-bottom plate, were infected for 24 h with trypomastigote forms of T. cruzi (Dm28c-Luc) at a ratio of 20:1 parasite-host cell. After washing, the drugs were added at concentrations of IC90, two times IC90, and 100 µM, respecting the CC20 value of cardiac spheroids as the maximum concentration. Bz was added at 100 µM. Luminescence measurements, which reveal the luciferase activity of the viable parasites, were performed after the addition of D-luciferin substrate (300 µg/mL). The luminescent signal was read in the Glomax reader and the results were represented in arbitrary luminescence units (ALU). The fluorescence microscopy images were also acquired from untreated and drug-treated infected 3D microtissues. Three-dimensional cultures were fixed with 4% paraformaldehyde in PBS and labeled with 4′,6-diamidino-2-phenylindole (DAPI). Images were acquired using a Zeiss Axio Imager M2 fluorescence microscope using Axio vision software (version 4.8).
# [2] = system: Intracellular amastigotes of T. cruzi (Dm28c-Luc); test: microbe, parasite or virus in culture; type: cell-based, Trypanosoma cruzi; conditions: for IC50 / IC90: Trypanosoma cruzi; for IC90: read-out: Anti-T. cruzi Activity Intracellular Amastigotes IC90
# Experimental: (§2) Genetically modified T. cruzi parasites, of clone Dm28c (TcI) expressing the firefly luciferase enzyme gene (Dm28c-Luc), were kindly provided by Dr. Cristina Henriques. T. cruzi Dm28c-Luc was maintained in a Vero cell cultivated in RPMI 1640 medium supplemented with 10% FBS. At 4-day post-infection (dpi), trypomastigotes, released in the cell culture supernatant, were harvested, followed by sedimentation (4000 rpm/20 min/4 °C) and quantification in a Neubauer chamber. Isolated trypomastigotes were used in the phenotypic screening assays as well as the antiparasitic activity in 3D cardiac microtissues, recovery (washout), and drug combination assays.
# The activity of pyrazole-thiadiazole derivatives against intracellular amastigotes was evaluated in 24 h-T. cruzi infected Vero cell cultures (1.5 × 10^4 cells/well) at a 10:1 ratio. The cultures were washed and incubated with serial dilutions of the derivatives or Bz (100–0.41 µM). Drug treatment was carried out for 72 h at 37 °C and the parasite viability was determined by luminescence readout after D-Luciferin substrate addition (300 µg/mL). The reading was performed in the Glomax reader. The cell cultures incubated with the culture medium containing dimethylsulphoxide (DMSO; concentration ≤ 1%) were used as the […]. The concentrations required to inhibit parasite viability by 50% (IC50) and 90% (IC90) were calculated using Prism GraphPad software (version 8.2.1). The selectivity index (SI), which measures the window between cytotoxicity (CC50) and anti-T. cruzi activity (IC50), was calculated as CC50/IC50. A minimum of 3 independent assays in duplicate were performed.
# [3] = system: Trypomastigotes of T. cruzi (Dm28c-Luc); test: microbe, parasite or virus in culture; type: cell-based, Trypanosoma cruzi; conditions: for IC50 / IC90: Trypanosoma cruzi, Dm28c-Luc, 24 h treatment; for IC50: 24 h, mean ± SD, read-out: Anti-T. cruzi Activity Trypomastigotes IC50; for IC90: read-out: Anti-T. cruzi Activity Trypomastigotes IC90
# Experimental: as §2
# Drug screening was performed against clinically relevant forms of T. cruzi (amastigotes and trypomastigotes). Trypomastigotes, Dm28c-Luc (1 × 10^6 parasites/well), were added to 96-well plates and incubated with pyrazole-thiadiazole derivatives or Bz (100–0.41 µM). After 24 h of treatment (37 °C), the viability of the parasites was analyzed by adding a D-Luciferin solution (300 µg/mL) and luminescence was measured in the Glomax microplate reader.
# Vero cells = test: Toxicity in mammalian cells (CellTiter Glo, 72 h); type: cell-based
# Experimental: (§3) Vero cell cultures grown in RPMI 1640 medium containing 10% fetal bovine serum (FBS) were cultured at 37 °C in a humidified atmosphere of 5% CO2 [82]. The cultures were used for drug screening assays and to obtain culture-derived trypomastigotes of T. cruzi.
# (§4) Vero cells (1.5 ×10^4 cells/well), cultivated for 24 h at 37 °C in white 96-well plates with clear bottoms, were used to assess the toxicity of the pyrazole-thiadiazole derivatives (series 1 and 2). After washing, the cells were incubated for 72 h at 37 °C with different drug concentrations (500–1.95 μM). Cell viability was measured by adding 20 μL/well of CellTiter Glo reagent (Promega Corporation, Madison, WI, USA). This cell viability kit generates a luminescent signal proportional to the amount of ATP. The luminescence readout was performed using the Glomax Microplate Reader (Promega Corporation, Madison, WI, USA). Thus, the 50% cytotoxicity concentration (CC50), which reduces the cell viability by 50% (CC50), was calculated with Prism GraphPad software (version 8.2.1).
# [4] = Toxicity in mammalian cells (CellTiter Glo, 72 h); type: cell-based; conditions: African green monkey, Vero cells; 72 h, ATP levels; read-out: Cytotoxicity Vero Cells CC50
# Experimental: as §3, §4
# [5] = system: T. cruzi (Dm28c-Luc) in Vero cell cultures; test: Washout (recovery) assay in T. cruzi-infected Vero cell cultures; type: cell-based, Trypanosoma cruzi; conditions: for ALUmean of parasite load in cell monolayer, washout assay: 10 days treatment + 10 days without drug
# Experimental: The culture medium of the untreated and treated infected cultures was replaced every 3 or 4 days by a fresh medium with or without the pyrazole-thiadiazole derivatives. The presence of free viable parasites in the culture supernatant was monitored at each medium change by adding luciferin (300 µg/mL) followed by readout on a Glomax microplate reader. At the endpoint, culture supernatants and cell monolayers were evaluated for viable parasites. Positive and negative controls were performed using Bz (150 µM) and DMSO (≤1%), respectively. A minimum of 3 independent experimental runs were performed with 12 replicates.
# [6] = Cardiac toxicity in 2D cardiac monolayers (CellTiter-Glo, 72 h); type: cell-based, Swiss webster mice; conditions: Swiss webster, mouse, primary cardiac muscle cell monolayers (2D culture), ATP levels
# Experimental: The primary culture of heart muscle cells was obtained from fetuses of Swiss webster mice. The heart was removed and the ventricles were fragmented and subjected to dissociation with trypsin and collagenase type II (Worthington Biochemical Corporation, Lakewood, USA) dissociation solution. Cell monolayers were employed to evaluate drug-induced cardiotoxicity.
# (§5) The 2D cardiac cultures (5 × 10^4 cells/well) and 3D cardiac microtissues (2.5 × 10^4 cells/well) were incubated for 72 h at 37 °C with pyrazole-thiadiazole candidates followed by ATP detection by CellTiter-Glo [86]. A minimum of 3 independent assays were performed in duplicate.
# [7] = Cardiac toxicity in 3D cardiac spheroids (CellTiter-Glo, 72 h); type: cell-based, Swiss webster mice; conditions: Swiss webster, mouse, 3D cardiac microtissue (cardiac spheroids), ATP levels, read-out: Toxicity CC50 3D Culture
# Experimental: as §1, §5
# Leishmania = system: Leishmania; set-up: method as in PMID 32492796; conditions: cited from earlier work
# [8] = Vero, read-out: Intracellular Amastigotes pIC50 (converted)
# [9] = Dm28c-Luc in Vero cells, 72 h treatment, mean ± SD, read-out: Anti-T. cruzi Activity Intracellular Amastigotes IC50
# [10] = Dm28c-Luc in Vero cells, 72 h treatment, mean ± SD
Compound,"IC50 [2, 8] [µM]","IC50 [2, 9] [µM]","IC90 [2, 10] [µM]",Trypomastigotes SI (CC50 of Vero cells/IC50 of trypomastigotes) [3],IC50 [3] [µM],IC90 [3] [µM],CC50 at 72 h [4] [µM],melting point [°C],Intracellular Amastigotes SI (CC50 of Vero cells/IC50 of intracellular amastigotes) [2],other results
"Nc1nnc(-c2cnn(-c3ccc([N+](=O)[O-])cc3)c2N)s1 [2k, 5-Amino-2-(5-amino-1-(4-nitrophenyl)-1H-pyrazol-4-yl)-1,3,4-thiadiazole]",10.5,10.4 ± 1.21,23.2 ± 4.23,>5,> 100,> 100,> 500,321 to 323,,"ALUmean (luminescence, parasite load) in 3D cardiac microtissue [1]: 5366 ± 2348 ALU; inhibition at 100 µM ([1]; Trypanosoma cruzi, vs infected untreated, read-out: Inhibition of parasite load in 3D cardiac microtissue): 86%; CC20 for Vero cell monolayers (Vero cells): > 500 µM; Activity relative to 1c in cell monolayer, washout assay ([5]; 150 µM): 11.8 times; ALUmean of parasite load in cell monolayer, washout assay ([5]; 150 µM): 4845 ± 2419 ALU; Activity relative to 1c in cell monolayer, washout assay ([5]; 300 µM): 19.8 times; Reduction of parasite release vs untreated infected group ([5]; 300 µM, 14 dpi): 93%; ALUmean of parasite load in cell monolayer, washout assay ([5]; 300 µM): 3349 ± 1767 ALU; Prevention of reactivation of infection after drug withdrawal ([5]; washout assay): did not prevent parasite recrudescence; CC50 at 72 h [6]: 191 ± 21 µM; CC50 at 72 h [7]: > 500 µM"
C[C@@H]1[C@H](O)[C@@H](C)/C=C/C=C/C=C/C=C/C=C/C=C/C=C/[C@H](O[C@@H]2O[C@H](C)[C@@H](O)[C@H](N)[C@@H]2O)C[C@@H]2O[C@](O)(C[C@@H](O)C[C@@H](O)[C@H](O)CC[C@@H](O)C[C@@H](O)CC(=O)O[C@H]1C)C[C@H](O)[C@H]2C(=O)O [amphotericin B],,,,,,,,,,EC50 (Leishmania; 2D model): 0.0349 µM; EC50 (Leishmania; 3D macrophage cultures): 0.0523 µM; Increase in the EC50 value of 3D vs 2D macrophage cultures (Leishmania): 33%
"Nc1nnc(-c2cnn(-c3cc(Cl)cc(Cl)c3)c2N)s1 [2d, 5-Amino-2-(5-amino-1-(3,5-dichlorophenyl)-1H-pyrazol-4-yl)-1,3,4-thiadiazole]",> 70.8,> 70,> 70,>5,> 100,> 100,> 500,299 to 300,>7.14,
"Nc1nnc(-c2cnn(-c3ccc(Cl)cc3Cl)c2N)s1 [2c, 5-Amino-2-(5-amino-1-(2,4-dichlorophenyl)-1H-pyrazol-4-yl)-1,3,4-thiadiazole]",> 70.8,> 70,> 70,>5,> 100,> 100,> 500,165 to 167,>7.14,"Reduction of the release of trypomastigotes ([5]; washout assay, concentration and day not stated): ≥ 82%"
"Nc1nnc(-c2cnn(-c3ccc(Br)cc3)c2)s1 [1i, 5-Amino-2-(1-(4-bromophenyl)-1H-pyrazol-4-yl)-1,3,4-thiadiazole]",28.2,28.4 ± 1.77,> 70,>5,> 100,> 100,> 500,340 to 341,>17.53,
"Nc1nnc(-c2cnn(-c3cc(Cl)cc(Cl)c3)c2)s1 [1d, 5-Amino-2-(1-(3,5-dichlorophenyl)-1H-pyrazol-4-yl)-1,3,4-thiadiazole]",58.9,58.7 ± 12.3,> 70,>5,> 100,> 100,> 500,283 to 285,>8.29,
"Nc1nnc(-c2cnn(-c3cccc(F)c3)c2N)s1 [2h, 5-Amino-2-(5-amino-1-(3-fluorophenyl)-1H-pyrazol-4-yl)-1,3,4-thiadiazole]",> 70.8,> 70,> 70,>5,> 100,> 100,> 500,285 to 286,>7.14,
"Nc1nnc(-c2cnn(-c3ccc([N+](=O)[O-])cc3)c2)s1 [1k, 5-Amino-2-(1-(4-nitrophenyl)-1H-pyrazol-4-yl)-1,3,4-thiadiazole]",58.9,58.3 ± 12.8,> 70,>5,> 100,> 100,> 500,331 to 333,>8.16,
